From patent publication US9738848B2, “Polyfunctional lubricant composition” (priority 2013, dated 2017)

Legend:
[1] = test system: Larval medaka (Oryzias latipes); settings: cited from earlier work
[2] = Hydrolyzability test (acid value after storage with water); assay type: physicochemical; settings: 1 mass percent water, 60° C.
Protocol: 1 Mass percent of water was added to phosphorus compounds and the mixture was stored in a thermostat at 60° C. The compounds were evaluated for hydrolyzability by measuring an acid value at each number of days elapsed.

Rainbow trout = settings: cited from earlier work

Compound | Larval medaka (Oryzias latipes) acute toxicity 96h-LC50 [1] | Hydrolyzability (acid value over days elapsed) [2] | Rainbow trout acute toxicity 96h-LC50 (Rainbow trout)
O=P(Oc1ccccc1)(Oc1ccccc1)Oc1ccccc1 [Triphenyl phosphate] | 1.3 µg/mL | high hydrolyzability | 
Triisopropyl phenyl phosphate | >100 µg/mL |  | 1.6 µg/mL
Tricresyl phosphate | 0.84 µg/mL |  | 
